Results reported in patent US7427670B2, “Cytochrome P450 24 (CYP24) monoclonal antibody and methods and uses thereof” (Cytochroma Inc., priority 2003, dated 2008).

Test system: CYP24 protein in HEK cells
Experiment: CYP24 protein expression in HEK cells, Western blot with anti-CYP24 mAb and densitometric analysis
Format: cell-based, human
Conditions: 10 nM
Description: • Human Epidermal Keratinocyte Cells (HEK) cells (CYP24 expressing cells) • Keratinocyte Growth Medium (KGM®; Cambrex) • HEK Cell Lysis Buffer (0.5 M Tris, pH 6.8, 10% SDS, glycerol, dH2O, protease inhibitor) • 1.7 ml eppendorf tubes • Isopropanol • Enhanced Chemiluminescense (ECL) Western Blotting Detection Reagants (Amersham Pharmacia) • 10 nM Calcitriol (Vitamin D) • 10 nM CTAX (Cytochroma Inc.) (“Vitamin D analog”) • 10 nM CTAY (Cytochroma Inc.) (“Vitamin D analog”) • 10 nM CTAZ (Cytochroma Inc.) (“Vitamin D analog”) • 6-well plates (i) HEK Cell Preparation Method:
125 thousand HEK cells per well were placed in 2.5 ml KGM® (2 plates) and incubated overnight @ 37° C. in 5% CO2. After 24 hours, old KGM® was replaced with fresh 2.5 ml KGM®. For 48 hour samples (Plate 1): 2.5 μl isopropanol was added to 1 well; 2.5 μl 10 μM calcitriol was added to 1 well; 2.5 μl 10 μM CTAX was added to 1 well; 2.5 μl 10 μM CTAY was added to 1 well; 2.5 μl […] was added to 1 well. […]
The effect of CYP24 protein expression in HEK cells treated with CYP24 inhibitors was investigated. […] Cell lysates were then analyzed for CYP24 protein by Western blot analysis using anti-CYP24 mAb as the primary antibody. Each sample was expressed as a relative amount of CYP24 protein compared to the control (control=1 unit).

C=C1/C(=C\C=C2/CCC[C@]3(C)[C@@H]([C@H](C)CCCC(C)(C)O)CC[C@@H]23)C[C@@H](O)C[C@@H]1O [Calcitriol]
induction of CYP24 protein (relative to control = 1 unit) (24 hours): weakly induces
induction of CYP24 protein (relative to control = 1 unit) (48 hours): weakly induces
